Laboratory results published in patent publication US5028609A, “Alkyl diamine derivatives” (Alkaloida Vegyeszeti Gyar, priority 1983, dated 1991).

Key:
[1] = tested on: aconitine arrhythmia on rats; assay: preventive aconitine arrhythmia test on rats; format: in vivo, rats of Wistar strain; conditions: for arrhythmia appearance time: ± S.E., 30 min monitoring; for responders at 4 mg/kg: read-out: positive cases, 4.0 mg/kg i.v., 2 min before aconitine
Procedure: The antiarrhythmic activity of the compounds of the Formula I was compared in a preventive aconitine arrhythmia test on rats as follows:
rats of Wistar strain weighing 200 to 250 g. were narcotized i.p. with 1.25 g./kg. of urethane and their ECG was registered by a Hellige equipment by II standard limb head.
Arrhythmia was induced by an i.v. infusion of 30 /ug/kg. aconitine nitrate whereafter the ECG was continuously monitored for 30 minutes.
Those cases were considered positive, where within 30 minutes after the aconitine infusion not a single phase of the arrhythmia occurred.
In control animals pretreated i.v. with a 0.9% sodium chloride solution (0.1 ml./100 g.) (n=20) the arrhythmogenic activity of the aconitine nitrate appeared after 2.88±0.32 minutes.
Per cent values of the positive cases, average time of the appearance of the arrhythmia-when the induced arrhythmia appeared within 30 minutes and toxicity values are shown.

white mice = assay: acute intravenous toxicity, method of Litchfield and Wilcoxon; format: in vivo; conditions: i.v.
Procedure: (§1) The acute intravenous (i.v.) toxicity values of the testcompounds was determined by the method of Litchfield and Wilcoxon and as test-animals white mice of both sexes were used (J. of Pharmacol. 1949, 96, 99.).

arrhythmia in rats = assay: arrhythmia test carried out in rats according to Zetler and Strubelt (ED125, ED150); format: in vivo; conditions: Rattus norvegicus, iv
Procedure: In cases of compounds having outstanding antiarrhythmic activity ED125 and ED150 values were calculated in arrhythmia test carried out in rats according to Zetler and Strubelt (Arzneim.-Forsch.) Drug.

[2] = acute intravenous toxicity, method of Litchfield and Wilcoxon; format: in vivo; conditions: mouse, in vivo, iv, mice
Procedure: as §1

[3] = Rattus norvegicus, iv, 0.5 h, no arrhythmia within 30 min = positive

SMILES	LD50 (white mice)	ED125 (arrhythmia in rats)	ED150 (arrhythmia in rats)	arrhythmia appearance time ([1]; 4.0 mg/kg i.v.)	responders at 4 mg/kg [1, 3]	other results
COc1cc(C(=O)NCCCNC(=O)C2=CC(C)(C)NC2(C)C)cc(OC)c1OC [I/2]	119 mg/kg	7.6 mg/kg	12.3 mg/kg	–	–	arrhythmia appearance time ([1]; 12.0 mg/kg i.v.): 16.7 ± 1.7 min; responders at 12 mg/kg ([1]; Rattus norvegicus, iv, 0.5 h, read-out: positive cases, 12.0 mg/kg i.v., 2 min before aconitine, no arrhythmia within 30 min = positive): 70%
CC=Cc1ccc(OCC(=O)NCCCNC(=O)C2=CC(C)(C)NC2(C)C)c(OC)c1 [I/8]	–	1.5 mg/kg	2.2 mg/kg	–	–	arrhythmia appearance time ([1]; 3.0 mg/kg i.v.): > 30 min; responders at 3 mg/kg ([1]; Rattus norvegicus, iv, 0.5 h, read-out: positive cases, 3.0 mg/kg i.v., 2 min before aconitine, no arrhythmia within 30 min = positive): 100%; LD50 [2]: 30 mg/kg
C=CCc1ccc(OCC(=O)NCCCNC(=O)C2=CC(C)(C)NC2(C)C)c(OC)c1 [I/9, N-(2-methoxy-4-allyl)-phenoxy-acetyl-N'-(2,2,5,5-tetramethyl-3-pyrroline-3-carbonyl)-1,3-propylene-diamine]	19 mg/kg	0.7 mg/kg	1.4 mg/kg	–	–	arrhythmia appearance time ([1]; 1.9 mg/kg i.v.): > 30 min; responders at 1.9 mg/kg ([1]; Rattus norvegicus, iv, 0.5 h, read-out: positive cases, 1.9 mg/kg i.v., 2 min before aconitine, no arrhythmia within 30 min = positive): 100%
C=CCc1cc(C)ccc1OCC(=O)NCCCNC(=O)C1=CC(C)(C)NC1(C)C [I/11]	14 mg/kg	1.4 mg/kg	2.4 mg/kg	–	–	arrhythmia appearance time ([1]; 1.4 mg/kg i.v.): 20.1 ± 2.5 min; responders at 1.4 mg/kg ([1]; Rattus norvegicus, iv, 0.5 h, read-out: positive cases, 1.4 mg/kg i.v., 2 min before aconitine, no arrhythmia within 30 min = positive): 80%
CC1(C)C=C(C(=O)NCCCNC(=O)CSc2ccccc2)C(C)(C)N1 [I/12]	38 mg/kg	4.6 mg/kg	6.95 mg/kg	28.5 min	90%	–
CC1(C)C=C(C(=O)NCCCNC(=O)Cc2cccs2)C(C)(C)N1 [I/19]	71 mg/kg	2 mg/kg	3.1 mg/kg	–	–	arrhythmia appearance time ([1]; 7.0 mg/kg i.v.): 27.5 ± 2.5 min; responders at 7 mg/kg ([1]; Rattus norvegicus, iv, 0.5 h, read-out: positive cases, 7.0 mg/kg i.v., 2 min before aconitine, no arrhythmia within 30 min = positive): 80%
CC=Cc1ccc(OCC(=O)NCCNC(=O)C2=CC(C)(C)NC2(C)C)c(OC)c1 [I/21]	–	2.4 mg/kg	4.1 mg/kg	> 30 min	100%	LD50 [2]: 18 mg/kg
CC=Cc1ccc(OC(C)C(=O)NCCCNC(=O)C2=CC(C)(C)NC2(C)C)c(OC)c1 (stereo not drawn) [I/22]	–	1.9 mg/kg	2.7 mg/kg	> 30 min	100%	LD50 [2]: 14 mg/kg
CC1(C)C=C(C(=O)NCCNCc2cccs2)C(C)(C)N1 [I/36]	–	4.5 mg/kg	7.6 mg/kg	15.9 ± 0.3 min	70%	LD50 [2]: 49 mg/kg
CC1(C)C=C(C(=O)NCCCNCc2ccccc2)C(C)(C)N1 [I/38]	26 mg/kg	2.2 mg/kg	3.6 mg/kg	27.5 min	90%	–
CC1(C)C=C(C(=O)NCCCNCc2cccs2)C(C)(C)N1 [I/44]	–	–	–	–	–	responders at 6.5 mg/kg ([1]; Rattus norvegicus, iv, 0.5 h, read-out: positive cases, 6.5 mg/kg i.v., 2 min before aconitine, no arrhythmia within 30 min = positive): 100%
CC1(C)C=C(C(=O)NCCCCNCc2cccs2)C(C)(C)N1 [I/49]	28 mg/kg	2.3 mg/kg	4.7 mg/kg	–	–	arrhythmia appearance time ([1]; 2.8 mg/kg i.v.): 10.0 min; responders at 2.8 mg/kg ([1]; Rattus norvegicus, iv, 0.5 h, read-out: positive cases, 2.8 mg/kg i.v., 2 min before aconitine, no arrhythmia within 30 min = positive): 90%
CC1(C)CC(C(=O)NCCCNCc2cccs2)C(C)(C)N1 (stereo not drawn) [I/50]	43 mg/kg	2.7 mg/kg	4.2 mg/kg	–	–	arrhythmia appearance time ([1]; 4.3 mg/kg i.v.): 30 min; responders at 4.3 mg/kg ([1]; Rattus norvegicus, iv, 0.5 h, read-out: positive cases, 4.3 mg/kg i.v., 2 min before aconitine, no arrhythmia within 30 min = positive): 100%
CC1(C)CC(C(=O)NCCCNCc2ccc(C(F)(F)F)cc2)C(C)(C)N1 (stereo not drawn) [I/52]	39 mg/kg	2.1 mg/kg	2.9 mg/kg	7.3 min	90%	–
CC1(C)C=C(C(=O)NCCCNCc2ccsc2)C(C)(C)N1 [I/53]	28 mg/kg	3.4 mg/kg	5.5 mg/kg	30 min	100%	–
CC1(C)CC(C(=O)NCCCNCc2ccsc2)C(C)(C)N1 (stereo not drawn) [I/54]	19 mg/kg	6.9 mg/kg	13.2 mg/kg	5.2 ± 0.8 min	70%	–
CC1(C)C=C(C(=O)NCCCN2C(=O)C3CC=CCC3C2=O)C(C)(C)N1 (stereo not drawn) [I/58]	113 mg/kg	–	–	–	–	arrhythmia appearance time ([1]; 11.3 mg/kg i.v.): 13.1 ± 2.5 min; responders at 11.3 mg/kg ([1]; Rattus norvegicus, iv, 0.5 h, read-out: positive cases, 11.3 mg/kg i.v., 2 min before aconitine, no arrhythmia within 30 min = positive): 50%
CC1(C)C=C(C(=O)NCCN2C(=O)c3ccccc3C2=O)C(C)(C)N1 [I/59]	55 mg/kg	4.2 mg/kg	7.9 mg/kg	–	–	arrhythmia appearance time ([1]; 5.5 mg/kg i.v.): 30 min; responders at 5.5 mg/kg ([1]; Rattus norvegicus, iv, 0.5 h, read-out: positive cases, 5.5 mg/kg i.v., 2 min before aconitine, no arrhythmia within 30 min = positive): 100%
CC1(C)C=C(C(=O)NCCCN2C(=O)c3ccccc3C2=O)C(C)(C)N1 [I/60]	23 mg/kg	1.4 mg/kg	2.6 mg/kg	–	–	arrhythmia appearance time ([1]; 2.3 mg/kg i.v.): 26.0 min; responders at 2.3 mg/kg ([1]; Rattus norvegicus, iv, 0.5 h, read-out: positive cases, 2.3 mg/kg i.v., 2 min before aconitine, no arrhythmia within 30 min = positive): 90%
CC1(C)C=C(C(=O)NCC(O)CN2C(=O)c3ccccc3C2=O)C(C)(C)N1 (stereo not drawn) [I/61]	28 mg/kg	1.9 mg/kg	3 mg/kg	30 min	100%	–
CC1(C)CC(C(=O)NCCCN2C(=O)c3ccccc3C2=O)C(C)(C)N1 (stereo not drawn) [I/62]	22 mg/kg	2.6 mg/kg	4.5 mg/kg	30 min	100%	–
CC1(C)C=C(C(=O)NCCCNC(=O)c2ccccc2C(=O)O)C(C)(C)N1 [I/68, N-(2,2,5,5-tetramethyl-3-pyrroline-3-carbonyl)-N'-(2-carboxybenzoyl)-1,3-diaminopropane]	419 mg/kg	–	–	–	–	arrhythmia appearance time ([1]; 41.9 mg/kg i.v.): 4.6 ± 0.7 min; responders at 41.9 mg/kg ([1]; Rattus norvegicus, iv, 0.5 h, read-out: positive cases, 41.9 mg/kg i.v., 2 min before aconitine, no arrhythmia within 30 min = positive): 40%
Cc1nc2ccccc2c(=O)n1CCCNC(=O)C1=CC(C)(C)NC1(C)C [I/70, 2-Methyl-3-[3-(2,2,5,5-tetramethyl-3-pyrroline-3-carbonyl-amino)-propyl]-quinazoline-4(3H)-one]	31 mg/kg	2.5 mg/kg	4.5 mg/kg	30 min	100%	–
CCc1nc2ccccc2c(=O)n1CCNC(=O)C1=CC(C)(C)NC1(C)C [I/71]	48 mg/kg	3.8 mg/kg	10.5 mg/kg	30 min	100%	–
CCc1nc2ccccc2c(=O)n1CCCNC(=O)C1=CC(C)(C)NC1(C)C [I/72]	13 mg/kg	1.1 mg/kg	1.7 mg/kg	30 min	100%	–
CCc1nc2ccccc2c(=O)n1CCCNC(=O)C1CC(C)(C)NC1(C)C (stereo not drawn) [I/74]	22 mg/kg	1.9 mg/kg	2.7 mg/kg	30 min	100%	–
CCN(CC)CCNC(=O)c1ccc(N)cc1 [procainamide, reference compound]	–	11 mg/kg	14 mg/kg	–	–	arrhythmia appearance time ([1]; 8.0 mg/kg i.v.): 9.5 ± 1.2 min; responders at 8 mg/kg ([1]; Rattus norvegicus, iv, 0.5 h, read-out: positive cases, 8.0 mg/kg i.v., 2 min before aconitine, no arrhythmia within 30 min = positive): 30%; LD50 [2]: 141 mg/kg
C=C[C@H]1C[N@@]2CC[C@H]1C[C@@H]2[C@@H](O)c1ccnc2ccc(OC)cc12 [quinidine, reference compound]	–	7.8 mg/kg	10.8 mg/kg	–	–	arrhythmia appearance time ([1]; 9.5 mg/kg i.v.): 10.0 ± 0.4 min; responders at 9.5 mg/kg ([1]; Rattus norvegicus, iv, 0.5 h, read-out: positive cases, 9.5 mg/kg i.v., 2 min before aconitine, no arrhythmia within 30 min = positive): 70%; LD50 [2]: 95 mg/kg
